From PubChem BioAssay AID1259407 (Chemical Carcinogenesis Research Information System (CCRIS), 2018)
Calls of active or inactive are those of the source. How the calls were made is not given here.

Test system: CCRIS mutagenicity, Ames/micronucleus/aberration tests
Experiment: CCRIS mutagenicity studies

Question: Which mutagenic call (Test System: AMES SALMONELLA TYPHIMURIUM, Strain/Indicator: TA97A, Metabolic Activation: NONE, Method: STANDARD PLATE) does the source give for `Nc1c2ccccc2nc2ccccc12` here?
Answer: active; positive

Question: And the mutagenic call (Test System: AMES SALMONELLA TYPHIMURIUM, Strain/Indicator: TA98, Metabolic Activation: HAMSTER, LIVER, S-9, AROCLOR 1254 (10%), Method: PREINCUBATION)?
Answer: inactive; negative

Question: What about the mutagenic call (Test System: AMES SALMONELLA TYPHIMURIUM, Strain/Indicator: TA98, Metabolic Activation: NONE, Method: FLUCTUATION (MICROTITER)) of the same molecule?
Answer: inactive; negative

Question: What about the mutagenic call (Test System: AMES SALMONELLA TYPHIMURIUM, Strain/Indicator: TA98, Metabolic Activation: NONE, Method: PREINCUBATION) of the same molecule?
Answer: inactive; negative

Question: And the mutagenic call (Test System: AMES SALMONELLA TYPHIMURIUM, Strain/Indicator: TA98, Metabolic Activation: NONE, Method: SPIRAL ASSAY)?
Answer: inactive; negative

Question: What about the mutagenic call (Test System: AMES SALMONELLA TYPHIMURIUM, Strain/Indicator: TA98, Metabolic Activation: NONE, Method: STANDARD PLATE) of the same molecule?
Answer: inactive; negative

Question: And the mutagenic call (Test System: AMES SALMONELLA TYPHIMURIUM, Strain/Indicator: TA98, Metabolic Activation: RAT, LIVER, S-9, AROCLOR 1254 (10%), Method: PREINCUBATION)?
Answer: inactive; negative

Question: What about the mutagenic call (Test System: AMES SALMONELLA TYPHIMURIUM, Strain/Indicator: TA98, Metabolic Activation: RAT, LIVER, S-9, AROCLOR 1254, Method: SPIRAL ASSAY) of the same molecule?
Answer: inactive; negative

Question: And the mutagenic call (Test System: AMES SALMONELLA TYPHIMURIUM, Strain/Indicator: TA98, Metabolic Activation: RAT, LIVER, S-9, AROCLOR 1254, Method: STANDARD PLATE)?
Answer: inactive; negative

Question: And the mutagenic call (Test System: AMES SALMONELLA TYPHIMURIUM, Strain/Indicator: TA100, Metabolic Activation: HAMSTER, LIVER, S-9, AROCLOR 1254 (10%), Method: PREINCUBATION)?
Answer: inactive; negative

Question: And the mutagenic call (Test System: AMES SALMONELLA TYPHIMURIUM, Strain/Indicator: TA100, Metabolic Activation: NONE, Method: PREINCUBATION)?
Answer: inactive; negative

Question: What about the mutagenic call (Test System: AMES SALMONELLA TYPHIMURIUM, Strain/Indicator: TA100, Metabolic Activation: NONE, Method: SPIRAL ASSAY) of the same molecule?
Answer: inactive; negative

Question: And the mutagenic call (Test System: AMES SALMONELLA TYPHIMURIUM, Strain/Indicator: TA100, Metabolic Activation: NONE, Method: STANDARD PLATE)?
Answer: inactive; negative

Question: And the mutagenic call (Test System: AMES SALMONELLA TYPHIMURIUM, Strain/Indicator: TA100, Metabolic Activation: RAT, LIVER, S-9, AROCLOR 1254 (10%), Method: PREINCUBATION)?
Answer: inactive; negative

Question: And the mutagenic call (Test System: AMES SALMONELLA TYPHIMURIUM, Strain/Indicator: TA100, Metabolic Activation: RAT, LIVER, S-9, AROCLOR 1254, Method: SPIRAL ASSAY)?
Answer: inactive; negative

Question: And the mutagenic call (Test System: AMES SALMONELLA TYPHIMURIUM, Strain/Indicator: TA100, Metabolic Activation: RAT, LIVER, S-9, AROCLOR 1254, Method: STANDARD PLATE)?
Answer: inactive; negative

Question: And the mutagenic call (Test System: AMES SALMONELLA TYPHIMURIUM, Strain/Indicator: TA1535, Metabolic Activation: HAMSTER, LIVER, S-9, AROCLOR 1254 (10%), Method: PREINCUBATION)?
Answer: inactive; negative

Question: What about the mutagenic call (Test System: AMES SALMONELLA TYPHIMURIUM, Strain/Indicator: TA1535, Metabolic Activation: NONE, Method: PREINCUBATION) of the same molecule?
Answer: inactive; negative

Question: And the mutagenic call (Test System: AMES SALMONELLA TYPHIMURIUM, Strain/Indicator: TA1535, Metabolic Activation: NONE, Method: SPIRAL ASSAY)?
Answer: inactive; negative

Question: And the mutagenic call (Test System: AMES SALMONELLA TYPHIMURIUM, Strain/Indicator: TA1535, Metabolic Activation: NONE, Method: STANDARD PLATE)?
Answer: inactive; negative

Question: What about the mutagenic call (Test System: AMES SALMONELLA TYPHIMURIUM, Strain/Indicator: TA1535, Metabolic Activation: RAT, LIVER, S-9, AROCLOR 1254 (10%), Method: PREINCUBATION) of the same molecule?
Answer: inactive; negative

Question: What about the mutagenic call (Test System: AMES SALMONELLA TYPHIMURIUM, Strain/Indicator: TA1535, Metabolic Activation: RAT, LIVER, S-9, AROCLOR 1254, Method: SPIRAL ASSAY) of the same molecule?
Answer: inactive; negative

Question: What about the mutagenic call (Test System: AMES SALMONELLA TYPHIMURIUM, Strain/Indicator: TA1535, Metabolic Activation: RAT, LIVER, S-9, AROCLOR 1254, Method: STANDARD PLATE) of the same molecule?
Answer: inactive; negative

Question: And the mutagenic call (Test System: AMES SALMONELLA TYPHIMURIUM, Strain/Indicator: TA1535, Metabolic Activation: RAT, LIVER, S-9, TETRACHLOROBIPHENYL, Method: PREINCUBATION)?
Answer: inactive; negative

Question: What about the mutagenic call (Test System: AMES SALMONELLA TYPHIMURIUM, Strain/Indicator: TA1537, Metabolic Activation: HAMSTER, LIVER, S-9, AROCLOR 1254 (10%), Method: PREINCUBATION) of the same molecule?
Answer: active; positive

Question: And the mutagenic call (Test System: AMES SALMONELLA TYPHIMURIUM, Strain/Indicator: TA1537, Metabolic Activation: NONE)?
Answer: active; positive

Question: And the mutagenic call (Test System: AMES SALMONELLA TYPHIMURIUM, Strain/Indicator: TA1537, Metabolic Activation: NONE, Method: PREINCUBATION)?
Answer: active; positive

Question: What about the mutagenic call (Test System: AMES SALMONELLA TYPHIMURIUM, Strain/Indicator: TA1537, Metabolic Activation: NONE, Method: SPIRAL ASSAY) of the same molecule?
Answer: active; positive

Question: What about the mutagenic call (Test System: AMES SALMONELLA TYPHIMURIUM, Strain/Indicator: TA1537, Metabolic Activation: NONE, Method: STANDARD PLATE) of the same molecule?
Answer: active; positive

Question: What about the mutagenic call (Test System: AMES SALMONELLA TYPHIMURIUM, Strain/Indicator: TA1537, Metabolic Activation: RAT LIVER S-9, AROCLOR 1254, Method: FLUCTUATION (MICROTITER)) of the same molecule?
Answer: active; positive

Question: And the mutagenic call (Test System: AMES SALMONELLA TYPHIMURIUM, Strain/Indicator: TA1537, Metabolic Activation: RAT, LIVER, S-9, AROCLOR 1254 (10%), Method: PREINCUBATION)?
Answer: active; positive

Question: What about the mutagenic call (Test System: AMES SALMONELLA TYPHIMURIUM, Strain/Indicator: TA1537, Metabolic Activation: RAT, LIVER, S-9, AROCLOR 1254, Method: SPIRAL ASSAY) of the same molecule?
Answer: active; positive

Question: What about the mutagenic call (Test System: AMES SALMONELLA TYPHIMURIUM, Strain/Indicator: TA1537, Metabolic Activation: RAT, LIVER, S-9, AROCLOR 1254, Method: STANDARD PLATE) of the same molecule?
Answer: active; positive

Question: What about the mutagenic call (Test System: AMES SALMONELLA TYPHIMURIUM, Strain/Indicator: TA1537, Metabolic Activation: RAT, LIVER, S-9, TETRACHLOROBIPHENYL, Method: PREINCUBATION) of the same molecule?
Answer: active; positive

Question: And the mutagenic call (Test System: AMES SALMONELLA TYPHIMURIUM, Strain/Indicator: TA1538, Metabolic Activation: NONE, Method: PREINCUBATION)?
Answer: inactive; negative

Question: What about the mutagenic call (Test System: AMES SALMONELLA TYPHIMURIUM, Strain/Indicator: TA1538, Metabolic Activation: RAT, LIVER, S-9, TETRACHLOROBIPHENYL, Method: PREINCUBATION) of the same molecule?
Answer: inactive; negative

Question: What about the mutagenic call (Test System: AMES SALMONELLA TYPHIMURIUM, Strain/Indicator: TA1977, Metabolic Activation: NONE, Method: PREINCUBATION) of the same molecule?
Answer: active; positive

Question: What about the mutagenic call (Test System: AMES SALMONELLA TYPHIMURIUM, Strain/Indicator: TA1977, Metabolic Activation: RAT, LIVER, S-9, TETRACHLOROBIPHENYL, Method: PREINCUBATION) of the same molecule?
Answer: active; positive

Question: And the mutagenic call (Test System: AMES SALMONELLA TYPHIMURIUM, Strain/Indicator: TA7001, Metabolic Activation: NONE, Method: FLUCTUATION (MICROTITER))?
Answer: inactive; negative

Question: What about the mutagenic call (Test System: AMES SALMONELLA TYPHIMURIUM, Strain/Indicator: TA7002, Metabolic Activation: NONE, Method: FLUCTUATION (MICROTITER)) of the same molecule?
Answer: inactive; negative

Question: And the mutagenic call (Test System: AMES SALMONELLA TYPHIMURIUM, Strain/Indicator: TA7003, Metabolic Activation: NONE, Method: FLUCTUATION (MICROTITER))?
Answer: inactive; negative

Question: And the mutagenic call (Test System: AMES SALMONELLA TYPHIMURIUM, Strain/Indicator: TA7004, Metabolic Activation: NONE, Method: FLUCTUATION (MICROTITER))?
Answer: inactive; negative

Question: And the mutagenic call (Test System: AMES SALMONELLA TYPHIMURIUM, Strain/Indicator: TA7005, Metabolic Activation: NONE, Method: FLUCTUATION (MICROTITER))?
Answer: inactive; negative

Question: And the mutagenic call (Test System: AMES SALMONELLA TYPHIMURIUM, Strain/Indicator: TA7006, Metabolic Activation: NONE, Method: FLUCTUATION (MICROTITER))?
Answer: inactive; negative

Question: And the mutagenic call (Test System: CHINESE HAMSTER OVARY, Strain/Indicator: CHO-K1-BH4 (HGPRT), Metabolic Activation: NONE, Method: SUSPENSION/PLATE)?
Answer: inactive; negative

Question: And the mutagenic call (Test System: CHINESE HAMSTER OVARY, Strain/Indicator: CHO-K1-BH4 (HGPRT), Metabolic Activation: RAT, LIVER, S-9, AROCLOR, Method: SUSPENSION/PLATE)?
Answer: inactive; negative

Question: And the mutagenic call (Test System: CHINESE HAMSTER V-79, Strain/Indicator: V-79/6-THIOGUANINE, Metabolic Activation: NONE, Method: FLASK ASSAY)?
Answer: inactive; negative

Question: And the mutagenic call (Test System: E. COLI, Strain/Indicator: WP2 UVRA, Metabolic Activation: HAMSTER, LIVER, S-9, AROCLOR 1254, Method: STANDARD PLATE)?
Answer: inactive; negative

Question: And the mutagenic call (Test System: E. COLI, Strain/Indicator: WP2 UVRA, Metabolic Activation: HAMSTER, LIVER, S-9, Method: STANDARD PLATE)?
Answer: inactive; negative

Question: And the mutagenic call (Test System: E. COLI, Strain/Indicator: WP2 UVRA, Metabolic Activation: MOUSE, LIVER, S-9, AROCLOR 1254, Method: STANDARD PLATE)?
Answer: inactive; negative

Question: What about the mutagenic call (Test System: E. COLI, Strain/Indicator: WP2 UVRA, Metabolic Activation: MOUSE, LIVER, S-9, Method: STANDARD PLATE) of the same molecule?
Answer: inactive; negative

Question: What about the mutagenic call (Test System: E. COLI, Strain/Indicator: WP2 UVRA, Metabolic Activation: NONE, Method: STANDARD PLATE) of the same molecule?
Answer: inactive; negative

Question: And the mutagenic call (Test System: E. COLI, Strain/Indicator: WP2 UVRA, Metabolic Activation: RAT, LIVER, S-9, AROCLOR 1254, Method: STANDARD PLATE)?
Answer: inactive; negative

Question: What about the mutagenic call (Test System: E. COLI, Strain/Indicator: WP2 UVRA, Metabolic Activation: RAT, LIVER, S-9, Method: STANDARD PLATE) of the same molecule?
Answer: inactive; negative

Question: And the mutagenic call (Test System: E. coli, Strain/Indicator: KKi (wild-type), KK5 (recA56) and KK6 (uvrA6), Metabolic Activation: None, Method: Viable cells scored on LB-plates after 18 hr incubation)?
Answer: active; positive in all 3 strains (most common mutations minus frameshifts in repetitive

Question: What about the mutagenic call (Test System: UDS RAT HEPATOCYTES, Strain/Indicator: THY INCORP, Metabolic Activation: NONE, Method: AUTORADIOGRAPHY (SERUM-FREE MEDIA)) of the same molecule?
Answer: inactive; negative
